Source: article PMC8179049 (Chemical Science, 2020)
Where “and” joins values, the source holds several entries; their conditions need not be identical. Equal entries are not always repeated. Where two headings read alike, the source gives them in different places.

Tests used:
[1] = target: T1, human AspH (His6-AspH315-758) (Homo sapiens, UniProt Q12797); design: method as in PMID 33069066; settings: ref 41a; read-out: IC50 (inhibition of AspH, literature); cited from earlier work
T1 construct: N-Terminally His6-tagged human AspH315-758 (His6-AspH315-758) was produced in Escherichia coli BL21 (DE3); made in house; host or cells: Escherichia coli BL21 (DE3), pET-28a(+) vector
T1 sequence (Q12797 315-758): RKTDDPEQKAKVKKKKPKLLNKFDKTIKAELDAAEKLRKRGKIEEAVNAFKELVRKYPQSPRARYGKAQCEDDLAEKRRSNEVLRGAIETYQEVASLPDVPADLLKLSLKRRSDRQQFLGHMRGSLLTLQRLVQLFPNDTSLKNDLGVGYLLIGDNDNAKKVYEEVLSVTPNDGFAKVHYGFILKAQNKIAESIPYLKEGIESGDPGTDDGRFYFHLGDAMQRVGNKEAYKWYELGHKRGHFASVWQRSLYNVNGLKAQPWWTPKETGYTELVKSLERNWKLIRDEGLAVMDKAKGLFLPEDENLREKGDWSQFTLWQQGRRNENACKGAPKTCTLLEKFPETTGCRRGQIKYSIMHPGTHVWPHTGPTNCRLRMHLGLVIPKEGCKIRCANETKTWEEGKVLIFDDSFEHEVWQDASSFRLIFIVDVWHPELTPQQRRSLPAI

[2] = target: T1, human AspH (His6-AspH315-758); experiment: SPE-MS AspH inhibition assay; type: biochemical; settings: mean ± SD, n = 3
Procedure: 6. Recombinant AspH production and purification
N-Terminally His6-tagged human AspH315-758 (His6-AspH315-758) was produced in Escherichia coli BL21 (DE3) cells using a pET-28a(+) vector and purified by Ni(II)-affinity chromatography (HisTrap HP column, GE Healthcare; 1 mL/min flow rate) and size-exclusion chromatography (HiLoad 26/60 Superdex 75 pg 300 mL column; 1 mL/min) using an ÄKTA pure machine (GE Healthcare) as previously reported.1,4 AspH was >95% pure by SDS-PAGE and MS analysis and had the anticipated mass (calculated for His6-AspH315-758: 54519 Da, found: 54519 Da).1 Purified AspH was stored in 50 mM HEPES buffer (pH 7.5, 150 mM NaCl) at a concentration of 125 μM at -78 °C; fresh aliquots were used for all AspH assays.
7. AspH substrate synthesis
AspH substrates were designed based on the sequence of EGFD1 of human coagulation factor X (hFX amino acids 86-124), which is a reported cellular AspH substrate.2 All substrates were prepared with a C-terminal amide.
The hFX-EGFD186-124-4Ser peptide (hFX amino acids 86-124; Supporting Figure S1c),1 used for crystallography experiments, was synthesized by solid phase peptide synthesis (SPPS) and purified by GL Biochem (Shanghai) Ltd (Shanghai, China). The thioether linked cyclic peptide hFX-CP101-119 (hFX amino acids 101-119; Supporting
Figure S1d), which was used as substrate in AspH SPE-MS assays,4 was synthesized by an intramolecular thioetherification cyclization reaction from the corresponding linear peptide (D-Ala replacing Cys101hFX and Ser replacing Cys112hFX) which was obtained by microwave-assisted solid phase peptide synthesis using the Fmoc-protection strategy as described.4
8. AspH inhibition assays […]
water; ammonium iron(II) sulfate hexahydrate, FAS, (NH 4)2Fe(SO4)2·6H2O: 400 mM in 20 mM HCl diluted to 1 mM in Milli-Q® Ultrapure water) were freshly prepared each day from commercially sourced solids (Sigma […]
(Greiner) in an approximately three-fold and 11-point dilution series (100 μM top concentration) using an ECHO 550 acoustic dispenser (Labcyte). DMSO and 2,4 -PDCA were used as negative and positive controls , respectively .
The final DMSO concentration was kept constant at 0.5%v/v throughout all experiments (using the DMSO backfill option of the acoustic dispenser). Each reaction was performed in technical duplicates in adjacent wells of the assay plates; additionally, assays were performed in three independent technical duplicates on different days using different DMSO inhibitor solutions. […]
dispensed across the inhibitor-containing 384-well assay plates with a multidrop dispenser (ThermoFischer Scientific) at 20°C under an ambient atmosphere. The plates were subsequently centrifuged (1000 rpm, 30 s) and incubated for 15 minutes at 20°C. The Substrate Mixture (25 μL/well), containing 2.0 μM hFX-CP101-119, 200 μM […]
Note: The multidrop dispenser ensured proper mixing of the Enzyme and the Substrate Mixtures which was essential for assay reproducibility. The plates were centrifuged (1000 rpm, 30 s) and af ter incubating for 7 minutes, […]
centrifuged (1000 rpm, 60 s) and analysed by MS.
(§1) The mass spectrometer parameters were:
(§2) Data were exported into Microsoft
(§3) The standard deviation (SD) of three
(§4) Z’-factors were calculated
9. Determination of kinetic parameters […]
(§5) in 50 mM HEPES buffer (pH 7.5).

[3] = target: T1, human AspH (His6-AspH315-758); experiment: NMR monitoring of AspH-catalyzed oxidative decarboxylation, with final SPE-MS analysis; type: biochemical; settings: for AspH-catalyzed oxidative decarboxylation of the 2OG derivative (NMR): 10 μM His6-AspH315-758, 150 μM hFX-CP101-119, 150 μM 2OG derivative, 50 μM FAS, pH 7.5, 25 °C; for hydroxylation (conversion) of hFX-CP101-119 in the final reaction mixture by SPE-MS / time to complete AspH-catalyzed oxidative decarboxylation (NMR): 10 μM AspH, 150 μM cosubstrate
Procedure: 2-methylsuccinate and terephthalate, respectively (continues on the following two pages). The AspH- […]
700 NMR machine equipped with a 5mm 1H(13C/15N) inverse cryoprobe. Assay conditions: 10 μM His6-AspH315- […]
iron(II) sulfate hexahydrate (FAS, (NH4)2Fe(SO4)2·6H2O) in 50 mM aqueous Tris-d11 containing 10 %v/v D2O (pH […]
product of the AspH-catalyzed reaction, was determined using SPE-MS (Supporting Information, Section 9) after […]
of the 1H NMR spectrum of commercial succinate in 50 mM aqueous Tris-d11 containing 10 %v/v D2O (pH 7.5, 25° […]
(1 picture or pasted object on this page, not shown here) […]
using a Bruker AVIII 700 NMR machine equipped with a 5mm 1H(13C/15N) inverse cryoprobe. Assay conditions: […]
ammonium iron(II) sulfate hexahydrate (FAS, (NH 4)2Fe(SO4)2·6H2O) in 50 mM aqueous Tris -d11 containing […]
which is the product of the AspH-catalyzed reaction, was determined using SPE-MS (Supporting Information, Section 9) after completion of the NMR experiments. […]
spectrum of synthetic 34 in 50 mM aqueous Tris-d11 containing 10 %v/v D2O (pH 7.5, 25° C); (b) Close-up (3.0-0.9 ppm) of the 1H NMR spectrum of commercial 2,2-dimethylsuccinate (52) in 50 mM aqueous Tris-d11

[4] = test system: glutamic oxaloacetic aminotransferase; design: method as in doi:10.1002/1615-4169(200108)343:6/7<692::AID-ADSC692>3.0.CO; settings: cited from earlier work
human AspH = target: T2, human AspH (Homo sapiens, UniProt Q12797); experiment: SPE-MS AspH turnover assay in the absence of 2OG (2OG derivative as cosubstrate); settings: 330 μM 2OG or 2OG derivative, 0.1 μM AspH, 2 μM hFX-CP101-119, 50 μM FAS, t = 15 min;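 also: percent conversion = hydroxylated cyclic peptide peak area relative to summed substrate plus product areas, taken from +2 charge state ion chromatograms by solid phase extraction MS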
T2 sequence (Q12797 315-758): T1 sequence (Q12797 315-758)
Procedure: AspH assays were performed as described in the ESI, ^† data are shown as the mean of three independent runs (n = 3; mean ± standard deviation, SD).
AspH assays were performed as described in Section 9 of the Supporting Information using 0.1 μM AspH, 2 μM
a positive control in the SPE-MS AspH turnover assays (Entry 1).
dependent conversion of the AspH substrate hFX-CP101-119 (Supporting Figure S1d). %-Substrate conversion is
AspH assays were performed as
described in Section 9 of the Supporting Information using 0.1 μM AspH, 2 μM hFX-CP101-119, 50 μM FAS, 330
AspH inhibition assays were incubated for 6 rather than 7 minutes before the enzyme reaction was
stopped by the addition of 10%v/v aqueous formic acid.
MS-analyses were performed using a RapidFire RF 365 high-throughput sampling robot (Agilent) attached to an
iFunnel Agilent 6550 accurate mass quadrupole time-of-flight (Q-TOF) mass spectrometer operated in the positive
ionization mode. Assay samples were aspirated under vacuum for 0.4 s and loaded onto a C4 solid phase extraction (SPE) cartridge. After loading, the C4 SPE cartridge was washed with 0.1%v/v aqueous formic acid to remove
non-volatile buffer salts (5 s, 1.5 mL/min). The peptide was eluted from the SPE cartridge with 0.1%v/v aqueous
formic acid in 85/15v/v acetonitrile/water into the mass spectrometer (5 s, 1.25 mL/min) and the SPE cartridge re-
equilibrated with 0.1%v/v aqueous formic acid (1 s, 1.25 mL/min). The mass spectrometer parameters were:
capillary voltage (4000 V), nozzle voltage (1000 V), fragmentor voltage (365 V), gas temperature (280°C), gas
flow (13 L/min), sheath gas temperature (350°C), sheath gas flow (12 L/min). The m/z +2 charge states of the
cyclic peptide (substrate) and the hydroxylated cyclic peptide (product) were used to extract ion chromatogram
data, peak areas were integrated using RapidFire Integrator software (Agilent). Data were exported into Microsoft
Excel and used to calculate the % conversion of the hydroxylation reaction using the equation: % conversion =
100 x (integral product cyclic peptide) / (integral substrate cyclic peptide + integral product cyclic peptide).
Normalized dose-response curves (2,4-PDCA and DMSO controls) were obtained from the raw data by non-linear
regression (GraphPad Prism 5) and used to determine IC50-values. The standard deviation (SD) of three
independent IC50 determinations (n = 3) was calculated using GraphPad Prism 5. Z’-factors were calculated
according to the cited literature using Microsoft Excel (Supporting Figure S3).14

[5] = target: T1, human AspH (His6-AspH315-758); experiment: AspH steady-state kinetics by SPE-MS turnover assays; type: biochemical; settings: for K app m / v app max: 0.1 μM His6-AspH315–758, 2.0 μM hFX-CP101–119, in the presence of LAA, mean ± SD, n = 3
Procedure: Supporting Figure S6. Initial hydroxylation rates of AspH-catalyzed peptide hydroxylations used to
Measurement times were normalized to the first sample injection analyzed after the addition of the Enzyme
as §1, §2, §3, §4
9. Determination of kinetic parameters
as §5

[6] = target: T1, human AspH (His6-AspH315-758); design: method as in PMID 32107312; settings: cited from earlier work
[7] = 50 nM His6-AspH315–758, 1.0 μM hFX-CP101–119, 3 μM 2OG, read-out: IC50 (inhibition of AspH)
[8] = 50 nM His6-AspH315–758, 1.0 μM hFX-CP101–119, 3 μM 2OG

Compound	IC50 [2, 7]	AspH-catalyzed substrate conversion (hydroxylation of hFX-CP101-119) (human AspH) [%]	K app m [5] [µM]	v app max [5] [µM/s]	time to complete AspH-catalyzed oxidative decarboxylation (NMR) [3] [min]	melting point	also measured
O=C(O)c1ccnc(C(=O)O)c1 [2,4-PDCA, pyridine-2,4-dicarboxylate]							IC50 [1]: ~30 nM
O=C(O)C(=O)N[C@H](Cc1ccccc1)C(=O)O [NOFD, N-oxalyl-D-phenylalanine]							IC50 [1]: ~15500 nM
CC(CC(=O)O)C(=O)C(=O)O (stereo not drawn) [compound 16, 3-methyl-2OG]	> 50000 nM	> 95	0.27 ± 0.04	0.0069 ± 0.0002	≤ 5		IC50 (inhibition of AspH) [2, 8]: Inactive

Further lines, with some results ahead:

IC50 [2, 7]	AspH-catalyzed substrate conversion (hydroxylation of hFX-CP101-119) (human AspH) [%]	K app m [5] [µM]	v app max [5] [µM/s]	time to complete AspH-catalyzed oxidative decarboxylation (NMR) [3] [min]	melting point	Compound	also measured
~300 nM and 300 nM	< 1					CC(C)(CC(=O)C(=O)O)C(=O)O [compound 34, 4,4-Dimethyl-2OG]	IC50 ([2]; 50 nM His6-AspH315-758, 1.0 μM hFX-CP101-119, read-out: IC50 (ESI Fig. S4)): 310 ± 100 nM; IC50 ([2]; IC50 at 200 μM 2OG (ESI Table S1), assay concentration of 200 μM 2OG): 6400 ± 400 nM; IC50 ([2]; IC50 at 400 μM 2OG (ESI Table S1), assay concentration of 400 μM 2OG): 10000 ± 3100 nM; IC50 ([2]; IC50 at 600 μM 2OG (ESI Table S1), assay concentration of 600 μM (0.6 mM) 2OG): 18700 nM and ~18700 nM; AspH-catalyzed oxidative decarboxylation of the 2OG derivative (NMR) [3]: undergoes slow AspH-catalyzed oxidative decarboxylation; hydroxylation (conversion) of hFX-CP101-119 in the final reaction mixture by SPE-MS ([3]; t = 15 h): ~ 95%; substitution for 2OG in transamination reactions [4]: does not efficiently substitute for 2OG
		1.3 ± 0.3	0.015 ± 0.0009	≤ 5		O=C(O)CCC(=O)C(=O)O [2OG, 2-Oxoglutarate, reference compound]	k cat [5]: 0.17 ± 0.03 s⁻¹; hydroxylation (conversion) of hFX-CP101-119 in the final reaction mixture by SPE-MS ([3]; t = 5 min): > 95%; K app m (2OG) in the absence of LAA [6]: ~0.6 µM; v app max (2OG) in the absence of LAA [6]: ~0.0168 µM/s
	~80	61.9 ± 11.0	0.004 ± 0.0003	≤ 5	> 350 °C (dec.)	O=C(O)C(=O)c1ccc(C(=O)O)cc1 [compound 41, 4-carboxyphenylglyoxylic acid]	K app m relative to that for 2OG (times higher) ([5]; ratio to K app m of 2OG): ~47; IC50 (inhibition of AspH) [2, 8]: did not inhibit; IC50 (inhibition of AspH) ([2]; 50 nM His6-AspH315–758, 1.0 μM hFX-CP101–119, 3 μM 2OG, listed as C00012): Inactive
430 ± 50 nM	< 1				> 240 °C (dec.)	O=C(O)C(=O)CC(Cc1ccccc1)C(=O)O (stereo not drawn) [compound 32, 4-benzyl-2OG]	AspH-catalyzed oxidative decarboxylation of the 2OG derivative (NMR) [3]: apparently not turned over
250 ± 50 nM	< 1				> 220 °C (dec.)	O=C(O)C(=O)CC(CCCc1ccccc1)C(=O)O (stereo not drawn) [compound 31]	
